What was measured:
SG3199 = compound: CC1=CN2[C@@H](C1)C=NC3=CC(=C(C=C3C2=O)OC)OCCCCCOC4=C(C=C5C(=C4)N=C[C@@H]6CC(=CN6C5=O)C)OC [SG3199]; settings: max 0.001 µM
In short: (§1)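 Cancer cell lines were dosed for 72 hours (final DMSO typically 0.2%) after 24 hours at 37°C and 5% CO2 in 1536-well plates containing 7.5 μl DMEM/F12 or RPMI with 10% FBS. Viability came from CellTiter-Glo 2.0 luminescence, scaled between blank-well and DMSO-well means, and dose responses were fitted to a two-parameter logistic curve with a non-linear mixed effects model. The single-agent IC50 was obtained from this fit.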

MK-2206 = compound: NC1(c2ccc(-c3nc4ccn5c(=O)[nH]nc5c4cc3-c3ccccc3)cc2)CCC1 [MK-2206]; settings: max 10 µM
In short: as §1

AZD5991 = compound: Cc1c2c(nn1C)CSCc1cc(n(C)n1)CSc1cc(c3ccccc3c1)OCCCc1c(C(=O)O)n(C)c3c-2c(Cl)ccc13 [AZD5991]; settings: max 1 µM
In short: as §1

AZD7648 = compound: Cc1cc2ncnn2cc1Nc1ncc2c(n1)n(C1CCOCC1)c(=O)n2C [AZD7648]; settings: max 10 µM
In short: as §1

Dasatinib = compound: CC1=C(C(=CC=C1)Cl)NC(=O)C2=CN=C(S2)NC3=CC(=NC(=N3)C)N4CCN(CC4)CCO [Dasatinib]; settings: max 2 µM
In short: as §1

5-Fluorouracil = compound: O=c1[nH]cc(F)c(=O)[nH]1 [5-Fluorouracil]; settings: max 20 µM
In short: as §1

AZD1390 = compound: CC(C)n1c(=O)n(C)c2cnc3cc(F)c(-c4ccc(OCCCN5CCCCC5)nc4)cc3c21 [AZD1390]; settings: max 0.3 µM
In short: as §1

Etoposide = compound: COc1cc([C@@H]2c3cc4c(cc3[C@@H](O[C@@H]3O[C@@H]5CO[C@@H](C)O[C@H]5[C@H](O)[C@H]3O)[C@H]3COC(=O)[C@H]23)OCO4)cc(OC)c1O [Etoposide]; settings: max 10 µM
In short: as §1

AZD5153 = compound: COc1nnc2ccc(N3CCC(c4ccc(OCCN5CCN(C)C(=O)[C@H]5C)cc4)CC3)nn12 [AZD5153]; settings: max 1 µM
In short: as §1

Venetoclax = compound: CC1(C)CCC(CN2CCN(c3ccc(C(=O)NS(=O)(=O)c4ccc(NCC5CCOCC5)c([N+](=O)[O-])c4)c(Oc4cnc5[nH]ccc5c4)c3)CC2)=C(c2ccc(Cl)cc2)C1 [Venetoclax]; settings: max 1 µM
In short: as §1

Paclitaxel = compound: CC(=O)O[C@H]1C(=O)[C@@]2(C)[C@H]([C@H](OC(=O)c3ccccc3)[C@]3(O)C[C@H](OC(=O)[C@H](O)[C@@H](NC(=O)c4ccccc4)c4ccccc4)C(C)=C1C3(C)C)[C@]1(OC(C)=O)CO[C@@H]1C[C@@H]2O [Paclitaxel]; settings: max 3 µM
In short: as §1

Doxorubicin = compound: COc1cccc2c1C(=O)c1c(O)c3c(c(O)c1C2=O)C[C@@](O)(C(=O)CO)C[C@@H]3O[C@H]1C[C@H](N)[C@H](O)[C@H](C)O1 [Doxorubicin]; settings: max 1 µM
In short: as §1

AZD2811 = compound: CCN(CCO)CCCOc1ccc2c(Nc3cc(CC(=O)Nc4cccc(F)c4)[nH]n3)ncnc2c1 [AZD2811]; settings: max 1 µM
In short: as §1

AZD8186 = compound: C[C@@H](Nc1cc(F)cc(F)c1)c1cc(C(=O)N(C)C)cc2c(=O)cc(N3CCOCC3)oc12 [AZD8186]; settings: max 10 µM
In short: as §1

Prexasertib = compound: COc1cccc(OCCCN)c1-c1cc(Nc2cnc(C#N)cn2)n[nH]1 [Prexasertib]; settings: max 1 µM
In short: as §1

AZD6738 = compound: C[C@@H]1COCCN1C2=NC(=NC(=C2)C3(CC3)[S@](=N)(=O)C)C4=C5C=CNC5=NC=C4 [AZD6738]; settings: max 10 µM
In short: as §1

Taselisib = compound: Cc1nc(-c2cn3c(n2)-c2ccc(-c4cnn(C(C)(C)C(N)=O)c4)cc2OCC3)n(C(C)C)n1 [Taselisib]; settings: max 10 µM
In short: as §1

Crizotinib = compound: C[C@@H](Oc1cc(-c2cnn(C3CCNCC3)c2)cnc1N)c1c(Cl)ccc(F)c1Cl [Crizotinib]; settings: max 10 µM
In short: as §1

AZD0156 = compound: CN(C)CCCOc1ccc(-c2ccc3ncc4c(c3c2)n(C2CCOCC2)c(=O)n4C)cn1 [AZD0156]; settings: max 3 µM
In short: as §1

AZD1775 = compound: C=CCn1c(=O)c2cnc(Nc3ccc(N4CCN(C)CC4)cc3)nc2n1-c1cccc(C(C)(C)O)n1 [AZD1775]; settings: max 3 µM
In short: as §1

Selumetinib = compound: Cn1cnc2c(F)c(Nc3ccc(Br)cc3Cl)c(C(=O)NOCCO)cc21 [Selumetinib]; settings: max 10 µM
In short: as §1

Gefitinib = compound: COc1cc2ncnc(Nc3ccc(F)c(Cl)c3)c2cc1OCCCN1CCOCC1 [Gefitinib]; settings: max 10 µM
In short: as §1

[1] = compound: O=C(Nc1ccc2[nH]nc(-c3ccncc3)c2c1)[C@@H]1CCN(CC(=O)N2CCN(c3ccc(-c4ncccn4)cc3)CC2)C1; settings: max 5 µM
In short: as §1

Savolitinib = compound: C[C@@H](c1ccc2nccn2c1)n1nnc2ncc(-c3cnn(C)c3)nc21 [Savolitinib]; settings: max 1 µM
In short: as §1

SRA737 = compound: N#Cc1cnc(Nc2cc(NC[C@H]3CNCCO3)c(C(F)(F)F)cn2)cn1 [SRA737]; settings: max 10 µM
In short: as §1

Olaparib = compound: O=C(c1cc(Cc2n[nH]c(=O)c3ccccc23)ccc1F)N1CCN(C(=O)C2CC2)CC1 [Olaparib]; settings: max 10 µM
In short: as §1

SN-38 = compound: CCc1c2c(nc3ccc(O)cc13)-c1cc3c(c(=O)n1C2)COC(=O)[C@]3(O)CC [SN-38]; settings: max 0.3 µM
In short: as §1

Alisertib = compound: COc1cc(Nc2ncc3c(n2)-c2ccc(Cl)cc2C(c2c(F)cccc2OC)=NC3)ccc1C(=O)O [Alisertib]; settings: max 10 µM
In short: as §1

Gemcitabine = compound: Nc1ccn([C@@H]2O[C@H](CO)[C@@H](O)C2(F)F)c(=O)n1 [Gemcitabine]; settings: max 0.3 µM
In short: as §1

AZD5363 = compound: C1CN(CCC1(C(=O)N[C@@H](CCO)C2=CC=C(C=C2)Cl)N)C3=NC=NC4=C3C=CN4 [AZD5363]; settings: max 10 µM
In short: as §1

Palbociclib = compound: CC(=O)c1c(C)c2cnc(Nc3ccc(N4CCNCC4)cn3)nc2n(C2CCCC2)c1=O [Palbociclib]; settings: max 10 µM
In short: as §1

AZD4320 = compound: CN(CC[C@H](CSC1=CC=CC=C1)NC2=C(C=C(C=C2)S(=O)(=O)NC(=O)C3=CC=C(C=C3)N4CCC(CC4)[C@H](C5=CC=CC=C5C6=CC=C(C=C6)Cl)O)S(=O)(=O)C(F)(F)F)CCO [AZD4320]; settings: max 1 µM
In short: as §1

Lapatinib = compound: CS(=O)(=O)CCNCc1ccc(-c2ccc3ncnc(Nc4ccc(OCc5cccc(F)c5)c(Cl)c4)c3c2)o1 [Lapatinib]; settings: max 10 µM
In short: as §1

Carboplatin = compound: C1CC(C1)(C(=O)[O-])C(=O)[O-].N.N.[Pt+2] [Carboplatin]; settings: max 10 µM
In short: as §1

Trametinib = compound: CC(=O)Nc1cccc(-n2c(=O)n(C3CC3)c(=O)c3c(Nc4ccc(I)cc4F)n(C)c(=O)c(C)c32)c1 [Trametinib]; settings: max 1 µM
In short: as §1

Cell Line	IC50, cell viability 72 h (SG3199) [nM]	IC50, cell viability 72 h (MK-2206) [nM]	IC50, cell viability 72 h (AZD5991) [nM]	IC50, cell viability 72 h (AZD7648) [nM]	IC50, cell viability 72 h (Dasatinib) [nM]	IC50, cell viability 72 h (5-Fluorouracil) [nM]	IC50, cell viability 72 h (AZD1390) [nM]	IC50, cell viability 72 h (Etoposide) [nM]	IC50, cell viability 72 h (AZD5153) [nM]	IC50, cell viability 72 h (Venetoclax) [nM]	IC50, cell viability 72 h (Paclitaxel) [nM]	IC50, cell viability 72 h (Doxorubicin) [nM]	IC50, cell viability 72 h (AZD2811) [nM]	IC50, cell viability 72 h (AZD8186) [nM]	IC50, cell viability 72 h (Prexasertib) [nM]	IC50, cell viability 72 h (AZD6738) [nM]	IC50, cell viability 72 h (Taselisib) [nM]	IC50, cell viability 72 h (Crizotinib) [nM]	IC50, cell viability 72 h (AZD0156) [nM]	IC50, cell viability 72 h (AZD1775) [nM]	IC50, cell viability 72 h (Selumetinib) [nM]	IC50, cell viability 72 h (Gefitinib) [nM]	IC50, cell viability 72 h [1] [nM]	IC50, cell viability 72 h (Savolitinib) [nM]	IC50, cell viability 72 h (SRA737) [nM]	IC50, cell viability 72 h (Olaparib) [nM]	IC50, cell viability 72 h (SN-38) [nM]	IC50, cell viability 72 h (Alisertib) [nM]	IC50, cell viability 72 h (Gemcitabine) [nM]	IC50, cell viability 72 h (AZD5363) [nM]	IC50, cell viability 72 h (Palbociclib) [nM]	IC50, cell viability 72 h (AZD4320) [nM]	IC50, cell viability 72 h (Lapatinib) [nM]	IC50, cell viability 72 h (Carboplatin) [nM]	IC50, cell viability 72 h (Trametinib) [nM]
ES8 (Ewing's Sarcoma)	> 1	5790	> 1000	> 10000	> 2000	> 20000	> 300	358	165	> 1000	< 3	79.8	5.8	> 10000	41.7	3460	800	1470	> 3000	522	> 10000	> 10000	> 5000	> 1000	> 10000	3250	1.41	16.2	5.64	8220	9500	> 1000	> 10000	> 10000	> 1000
GR-ST (B-Lymphoblastic Leukemia)	> 1	2260	> 1000	> 10000	> 2000	> 20000	> 300	9020	41.2	> 1000	9.98	684	> 1000	4950	16.8	1740	874	2380	> 3000	375	> 10000	> 10000	> 5000	> 1000	1750	> 10000	6.71	> 10000	19.8	4130	3060	> 1000	5910	> 10000	> 1000
K-562 (Chronic Myelogenous Leukemia)	> 1	> 10000	> 1000	> 10000	22.3	> 20000	> 300	> 10000	> 1000	> 1000	34.1	> 1000	> 1000	> 10000	19.5	4140	> 10000	2110	> 3000	624	> 10000	> 10000	> 5000	> 1000	4120	> 10000	112	4680	> 300	> 10000	> 10000	> 1000	> 10000	> 10000	> 1000
L-540 (Hodgkin's Lymphoma)	> 1	> 10000	99.8	> 10000	> 2000	835	> 300	779	104	> 1000	39.3	157	> 1000	> 10000	8.45	761	> 10000	6590	> 3000	299	> 10000	> 10000	> 5000	> 1000	2460	> 10000	2.77	3880	7.55	> 10000	> 10000	> 1000	> 10000	> 10000	> 1000
MKN28 (Gastric Carcinoma)	> 1	> 10000	> 1000	> 10000	> 2000	> 20000	> 300	> 10000	> 1000	> 1000	1440	> 1000	> 1000	> 10000	456	> 10000	> 10000	> 10000	> 3000	> 3000	> 10000	> 10000	> 5000	> 1000	> 10000	> 10000	> 300	> 10000	> 300	> 10000	> 10000	> 1000	> 10000	> 10000	> 1000

Reference: the supplement of paper PMC11061612
